Columns and labels:
Alzheimer patients = details: i.v. administration; cited from earlier work
[1] = Side effects of cholinesterase inhibitors in rats; set-up: animals with facial clonus / animals with sedation: dose or concentration left out as unconfirmed
[2] = tested on: 3H-choline accumulation and K+ evoked acetylcholine release; assay: 3H-choline accumulation and K+ evoked acetylcholine release in vitro; details: concentration giving 100% inhibition of cholinesterase in vitro; after each of two doses
plasma cholinesterase = assay: Plasma cholinesterase inhibition by naled, DDVP and metrifonate; type: biochemical
Excerpt: Unlike metrifonate, which acts as a slow release formulation, naled degrades rapidly in vivo to the metabolite DDVP. […] The slightly lower values in inhibition observed for naled than that of DDVP can be attributed to its higher molecular weight. […] All the cholinesterase inhibition activity of naled is a result of the formation of DDVP.

brain cholinesterase [3] = details: cited from earlier work
cholinesterase [4] = details: when normal acetylcholine levels are regained (within 24 hours) after acute administration; cited from earlier work
acetylcholine [5] = details: cortex, striatum, hippocampus and midbrain; cited from earlier work
[6] = with loss of enzymatic inhibitory activity; cited from earlier work
acetylcholine [7] = details: acute administration, all brain regions; cited from earlier work
cholinesterase [8] = assay: Cholinesterase activity in rat brain regions after intracerebroventricular metrifonate; type: in vivo; details: 2.5 mg intracerebroventricularly, injected side, 30 min
Description: (§1) Levels of acetylcholine increased by 45% at 45 min. then returned to normal by 120 min. When metrifonate (2.5 mg) was given intracerebroventricularly the activity of cholinesterase decreased in the injected side at 30 min. to 20% in hippocampus, 22% in the medulla, 50% in the cerebellum, 58% in the striatum and 72% in the cortex.

[9] = tested on: plasma acetycholinesterase; details: in vivo; cited from earlier work
acetylcholine [10] = details: 125 mg/kg intraperitoneal, simultaneous with inhibition; cited from earlier work
[11] = in vivo; cited from earlier work
brain cholinesterase [12] = assay: Cholinesterase activity in rat after intramuscular inhibitor; type: in vivo; details: for activity of cholinesterase: 80 mg/Kg intramuscular
acetylcholine [13] = assay: Acetylcholine levels in rat brain regions after intracerebroventricular metrifonate; type: in vivo; details: 2.5 mg intracerebroventricularly
Description: as §1

[14] = tested on: Alzheimer's disease patients; assay: Open metrifonate study in Alzheimer's disease patients, ADAS; type: in vivo
Description: We have administered metrifonate to 15 Alzheimer's disease patients. Patients were diagnosed using Diagnostic Statistical Manual IIIR criteria. […] Patients with moderately severe Alzheimer's disease were accepted to explore for effects of severity on drug response.
(§2) Patients were tested using the Alzheimer's Disease Assessment Scale (ADAS) (Rosen et al 1984), Mini Mental State Examination (Folstein et al 1975), a Clincial Global Assessment Scale (Guy 1973) and a rating scale for side effects. A laboratory battery to assess hematopoietic, hepatic, urinary and cardiac status, physical examination, vital signs and measurement of blood cholinesterase activities were completed. Patients were then given in a single oral dose under open conditions metrifonate 2.5 mg/Kg and 5 mg/Kg on successive weeks and reassessed 1, 4 and 7 days after the 2.5 mg/Kg dose and 4 and 7 days after the 5 mg/Kg dose. Patients were next administered metrifonate one month later after a second baseline assessment (blood cholinesterase have returned to initial values by 1 month) and were given on four successive weeks 7.5 mg/Kg, 7.5 mg/Kg, 15 mg/Kg and 15 mg/Kg and assessed 7 days after each dosing prior to administration of the next dose. At each assessment all the cognitive and medical studies at baseline were repeated.
To identify responders we used the criterion of an improvement of 4 points on the ADAS. Among 5 patients who have received all four dosage levels we have identified 5 as responders, among 10 patients who have received both the 2.5 and 5 mg/Kg doses we have identified 5 responders for a total of 10 responders identified. […] The longest term patients (n=5) were on metrifonate for a total of four months.
In the completed patients the preferred dose, defined as maximum improvement without interfering side effects, was identified. Best doses ranged from 2.5 to 7.5 mg/Kg. Lower doses of about 0.5 mg/Kg were also operable.

[15] = tested on: brain acetylcholinesterase; details: 125 mg/kg intraperitoneal, within 15 minutes; cited from earlier work
[16] = tested on: cholinesterase and acetylcholinesterase in blood; assay: Blood cholinesterase activities in Alzheimer's disease patients on metrifonate; type: in vivo; details: 15 patients, 4-16 weeks of once weekly drug
Description: as §2
(§3) In sum we have successfully administered metrifonate to 15 patients (4-16 weeks of once weekly drug) without the appearance of side effects except for nausea and vomiting in four patients that has not reoccurred following administration of the highest dose as a divided dose over two days. […]

acetylcholinesterase = details: cited from earlier work
acetylcholine [17] = assay: Acetylcholine levels in rat brain after one or two consecutive administrations; type: in vivo
Excerpt: The second administration of the drugs was timed so as to allow acetylcholine levels to return to approximately (+12%) control levels and the concentration of the drug was the highest that would allow 100% survival.

[18] = Side effects in Alzheimer's disease patients on metrifonate; type: in vivo
Description: as §2, §3

[19] = physostigmine i.m., tetrahydroaminoacridine 15 mg/Kg
[20] = tetrahydroaminoacridine 15 mg/Kg

CNC(=O)Oc1ccc2c(c1)[C@]1(C)CCN(C)[C@@H]1N2C [physostigmine]
studies that have shown improvement in memory (Alzheimer patients): 6 out of 9 | animals with splay of hind limbs ([1]; physostigmine 300 mg/Kg i.m.): 25% | animals with facial clonus ([1]; physostigmine i.m.): 15% | animals with sedation ([1]; physostigmine i.m.): 10% | animals with fasciculations [1, 19]: 60% | animals with tremor [1, 19]: 30% | 3H acetylcholine release [2]: significantly more

Nc1c2c(nc3ccccc13)CCCC2 [tetrahydroaminoacridine]
animals with fasciculations [1, 19]: 25% | animals with tremor [1, 19]: 25% | animals with facial and forelimb clonus [1, 20]: 10% | animals with generalized seizures [1, 20]: 4% | animals with increased salivation [1, 20]: 60% | animals with lacrimation [1, 20]: 40% | animals with pronounced splay [1, 20]: 35% | interval between generalized seizures [1, 20]: 5 to 10 min

COP(=O)(OC)OC(Br)C(Cl)(Cl)Br (stereo not drawn) [naled, 1,2-dibromo-2,2-dichlorvoethyl dimethyl phosphate]
plasma cholinesterase inhibition compared with DDVP (plasma cholinesterase): parallel to that by DDVP | inherent cholinesterase inhibition activity (plasma cholinesterase; conclusion from comparison with DDVP): without inherent cholinesterase inhibition activity of its own

COP(=O)(OC)OC=C(Cl)Cl [DDVP, 2,2 dichlorovinyl dimethyl phosphate]
time to become active as inhibitor of brain cholinesterase (brain cholinesterase [3]; in vivo): one | inhibition of brain cholinesterase (brain cholinesterase [3]; maximal (up to)): up to 96% | cholinesterase still inhibited (cholinesterase [4]): 35% | time to peak accumulation of acetylcholine (acetylcholine [5]): ≤ 5 min | inactivation by oxidative metabolism [6]: rapidly inactivated | time to regain normal acetylcholine levels (acetylcholine [7]): ≤ 24 h

COP(=O)(OC)C(O)C(Cl)(Cl)Cl (stereo not drawn) [metrifonate]
activity of cholinesterase, cerebellum (cholinesterase [8]): 50% | activity of cholinesterase, cortex (cholinesterase [8]): 72% | activity of cholinesterase, hippocampus (cholinesterase [8]): 20% | activity of cholinesterase, medulla (cholinesterase [8]): 22% | activity of cholinesterase, striatum (cholinesterase [8]): 58% | half life of cholinesterase inhibition [9]: 120 to 140 h | change in acetylcholine (acetylcholine [10]): increase | absorption in humans [11]: rapidly absorbed | tolerance in humans [11]: relatively few side effects | activity of cholinesterase (brain cholinesterase [12]; 30 min): 26% | activity of cholinesterase (brain cholinesterase [12]; 180 min): 50% | activity of cholinesterase (brain cholinesterase [12]; 360 min): 74% | peak cholinesterase inhibition (brain cholinesterase [12]; at the doses used): 85% | time of peak cholinesterase inhibition (brain cholinesterase [12]; at the doses used): 30 min | seizures ([1]; metrifonate 80 mg/Kg 1M): did not occur | survival ([1]; metrifonate 80 mg/Kg 1M): all animals survived | time at which symptoms developed after the injection ([1]; metrifonate 80 mg/Kg 1M): 20 to 35 min | side effects compared with the other two drugs ([1]; metrifonate 80 mg/Kg 1M vs physostigmine and tetrahydroaminoacridine): less frequent and less severe | maximal level of acetylcholine, hippocampus and cortex (acetylcholine [13]; 45 min): 160 % of baseline | peak level of acetylcholine, striatum (acetylcholine [13]; 60 min): 155 % of baseline | effect of the highest dose on cognitive performance ([14]; 15 mg/KG): deterioration in cognitive performance | clinical effect of once weekly dosing ([14]; 0.5 to 15 mg/Kg body weight/week, significant number of Alzheimer's disease patients): improvement in memory, cognition and other behaviors | total of responders identified ([14]; 15 patients): 10 | effect of lower doses ([14]; about 0.5 mg/Kg): operable | change on the ADAS in responders ([14]; all responders): ≥ 9 | responders (improvement of 4 points on the ADAS) ([14]; among 5 patients who received all four dosage levels): 5 | responders (improvement of 4 points on the ADAS) ([14]; among 10 patients who received both the 2.5 and 5 mg/Kg doses): 5 | inhibition of brain acetylcholinesterase [15]: 70% | inhibition of cholinesterase and acetylcholinesterase in blood [16]: up to 80% | activity of the precursor itself against acetylcholinesterase (acetylcholinesterase): not active | time of return of acetylcholine to normal (acetylcholine [17]; 80 mg/Kg intramuscular): ≤ 120 min | increase in levels of acetylcholine (acetylcholine [17]; 80 mg/Kg intramuscular, 45 min): 45% | time at which acetylcholine returned practically to control levels (acetylcholine [17]; first administration): 90 min | time at which the peak value of acetylcholine was reached (acetylcholine [17]; first administration): 45 min | increase in acetylcholine levels after the first administration (acetylcholine [17]; rat brain, first of two consecutive administrations): 45% | duration of the acetylcholine increase after the second administration (acetylcholine [17]; second consecutive administration): 120 min | increase in acetylcholine after the second administration (acetylcholine [17]; second consecutive administration, highest dose allowing 100% survival): 33% | increase necessary to obtain the same amount of plasma cholinesterase inhibition (plasma cholinesterase; relative to naled/DDVP): 10 fold | patients with nausea and vomiting ([18]; 15 patients, 4-16 weeks of once weekly drug): four | adverse, side or toxic effects ([18]; up to 15 mg/Kg body weight/week, except occasional nausea and vomiting): have not occurred

Reference: US4950658A, “Method of medical treatment of Alzheimer's disease” (priority 1988, dated 1990)
